Results on 1 compound are retold here after patent US10369129B2, “Long acting pharmaceutical composition of protease inhibitor” (TaiMed Biologics, Inc., priority 2016, dated 2019).

The target of data set [1] is HIV-1 protease (Human immunodeficiency virus type 1 group M subtype B, UniProt P04585). The class given is cell-based. The conditions noted are these: antiviral studies.
The subject of data set [2] is PI-resistant strains. Kind of data set: cross-resistance studies against 63 PI-resistant strains. The conditions noted are these: compared with approved protease inhibitors. The class given is cell-based, HIV.
Data set [3] has as its system laboratory-adapted virus. The data set is described as follows: 48-week resistance selection study and site-directed mutagenesis in vitro. The class given is cell-based, HIV. As for the experimental part:
A 48-week resistance selection study was performed by increasing the concentrations of TMB-607 against a laboratory-adapted virus in vitro.

Data set [4] in a line: solubility. The class given is physicochemical.
For data set [5], the system named is HIV. As to conditions: cited from earlier work.

Each structure is given as a SMILES string.

On to `COC(=O)NC(C(=O)NCCCCC(CO)N(CC(C)C)S(=O)(=O)c1ccc(N)cc1)C(c1ccccc1)c1ccccc1` (stereo not drawn) [TMB-607], for which the “inhibiting the HIV-1 protease” value in data set [1] is “effective and selective”. Also, the “levels of reduced susceptibility” value in data set [2] is on record as “lower levels of reduced susceptibility than any of approved Protease inhibitors (PIs)”. Besides, the “mutations selected in the protease open reading frame” value in data set [3] (48 weeks, increasing concentrations of TMB-607, laboratory-adapted virus in vitro) was “Four mutations in the protease open reading frame were selected”. In addition, the “resistance conferred by single mutations” value in data set [3] (site-directed mutagenesis, in vitro) is reported as “single mutations did not result in significant resistance”. Also, the solubility entry in data set [4] is recorded as “poor”. The “protein binding-adjusted antiviral activity EC50” value in data set [5] was 0.023 µg/mL.
